Laboratory results from patent US20130209543A1, “ENHANCED TREATMENT REGIMENS USING MTOR INHIBITORS” (Intellikine LLC, priority 2011, published 2013).
pIC50: −log10 of the molar value. Like-named read-outs stand apart in the source and are kept apart here.

Assays:
Format in all cases: biochemical
PI3K α = PI3K α (Homo sapiens, UniProt P42336); experiment: PI3K α kinase assay
mTOR = target: T1, mTOR (Homo sapiens, UniProt P42345); experiment: mTOR kinase inhibition assay
T1 construct: purchased Invitrogen
Method: The compounds described herein and any other mTorC1/mTorC2 inhibitors known in the art can be tested against recombinant mTOR (Invitrogen) in an assay containing 50 mM HEPES, pH 7.5, 1 mM EGTA, 10 mM MgCl2, 2.5 mM, 0.01% Tween, 10 μM ATP (2.5 μCi of μ-32P-ATP), and 3 mg/mL BSA. Rat recombinant PHAS-1/4EBP1 (Calbiochem; 2 mg/mL) is used as a substrate. Reactions are terminated by spotting onto nitrocellulose, which is washed with 1M NaCl/1% phosphoric acid (approximately 6 times, 5-10 minutes each). Sheets are dried and the transferred radioactivity quantitated by phosphorimaging.
For instance, one can use Invitrogen's LanthaScreen™ Kinase assay to test the inhibitors of mTOR disclosed herein. This assay is a time resolved FRET platform that measures the phosphorylation of GFP labeled 4EBP1 by mTOR kinase. The kinase reaction is performed in a white 384 well microtitre plate. The total reaction volume is 20 μl per well and the reaction buffer composition is 50 mM HEPES pH7.5, 0.01% Polysorbate 20, 1 mM EGTA, 10 mM MnCl2, and 2 mM DTT. In the first step, each well receives 2 ul of test compound in 20% dimethylsulphoxide resulting in a 2% DMSO final concentration. Next, 8ul of mTOR diluted in reaction buffer is added per well for a 60 ng/ml final concentration. To start the reaction, 10 ul of an ATP/GFP-4EBP1 mixture (diluted in reaction buffer) is added per well for a final concentration of 10 μM ATP and 0.5 μM GFP-4EBP1. The plate is sealed and incubated for 1 hour at room temperature. […] The plate is sealed, incubated for 1 hour at room temperature, and then read on a plate reader set up for LanthaScreen™ TR-FRET. Data is analyzed and IC50s are generated using GraphPad Prism 5.

PI3K γ = PI3K γ (Homo sapiens, UniProt P48736); experiment: PI3K γ kinase assay
PI3K δ = PI3K δ (Homo sapiens, UniProt O00329); experiment: PI3K δ kinase assay
PI3K β = PI3K β (Homo sapiens, UniProt P42338); experiment: PI3K β kinase assay
Chain of PI3K β (P42338 whole entry, species assumed): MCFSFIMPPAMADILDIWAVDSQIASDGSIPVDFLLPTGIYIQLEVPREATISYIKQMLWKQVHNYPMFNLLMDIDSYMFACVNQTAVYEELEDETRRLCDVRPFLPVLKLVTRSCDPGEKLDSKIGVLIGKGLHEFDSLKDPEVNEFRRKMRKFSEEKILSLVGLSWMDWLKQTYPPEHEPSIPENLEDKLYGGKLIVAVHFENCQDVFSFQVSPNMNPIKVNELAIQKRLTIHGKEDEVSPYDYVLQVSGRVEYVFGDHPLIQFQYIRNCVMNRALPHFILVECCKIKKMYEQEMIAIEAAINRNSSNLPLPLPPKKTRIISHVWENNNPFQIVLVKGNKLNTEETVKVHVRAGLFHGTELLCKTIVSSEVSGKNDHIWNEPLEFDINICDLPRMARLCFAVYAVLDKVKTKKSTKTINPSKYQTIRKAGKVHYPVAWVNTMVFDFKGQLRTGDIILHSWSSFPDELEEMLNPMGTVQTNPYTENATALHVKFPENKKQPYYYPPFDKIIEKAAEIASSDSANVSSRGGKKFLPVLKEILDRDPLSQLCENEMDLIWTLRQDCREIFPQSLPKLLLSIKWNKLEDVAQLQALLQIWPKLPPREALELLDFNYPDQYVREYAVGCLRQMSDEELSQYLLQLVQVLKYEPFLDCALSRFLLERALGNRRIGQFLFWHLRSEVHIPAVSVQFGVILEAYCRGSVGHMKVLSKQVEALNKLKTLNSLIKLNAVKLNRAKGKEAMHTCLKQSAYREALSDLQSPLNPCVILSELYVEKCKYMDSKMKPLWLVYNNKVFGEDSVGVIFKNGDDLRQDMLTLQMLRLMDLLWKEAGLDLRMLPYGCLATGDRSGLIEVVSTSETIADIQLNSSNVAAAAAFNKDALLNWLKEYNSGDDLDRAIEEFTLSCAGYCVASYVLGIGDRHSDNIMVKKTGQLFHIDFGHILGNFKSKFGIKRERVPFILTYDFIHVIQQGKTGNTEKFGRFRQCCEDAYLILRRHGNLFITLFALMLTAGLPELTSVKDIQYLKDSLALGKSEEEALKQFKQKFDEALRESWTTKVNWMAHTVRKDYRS
Chain of PI3K β (P27986 whole entry partner, species assumed): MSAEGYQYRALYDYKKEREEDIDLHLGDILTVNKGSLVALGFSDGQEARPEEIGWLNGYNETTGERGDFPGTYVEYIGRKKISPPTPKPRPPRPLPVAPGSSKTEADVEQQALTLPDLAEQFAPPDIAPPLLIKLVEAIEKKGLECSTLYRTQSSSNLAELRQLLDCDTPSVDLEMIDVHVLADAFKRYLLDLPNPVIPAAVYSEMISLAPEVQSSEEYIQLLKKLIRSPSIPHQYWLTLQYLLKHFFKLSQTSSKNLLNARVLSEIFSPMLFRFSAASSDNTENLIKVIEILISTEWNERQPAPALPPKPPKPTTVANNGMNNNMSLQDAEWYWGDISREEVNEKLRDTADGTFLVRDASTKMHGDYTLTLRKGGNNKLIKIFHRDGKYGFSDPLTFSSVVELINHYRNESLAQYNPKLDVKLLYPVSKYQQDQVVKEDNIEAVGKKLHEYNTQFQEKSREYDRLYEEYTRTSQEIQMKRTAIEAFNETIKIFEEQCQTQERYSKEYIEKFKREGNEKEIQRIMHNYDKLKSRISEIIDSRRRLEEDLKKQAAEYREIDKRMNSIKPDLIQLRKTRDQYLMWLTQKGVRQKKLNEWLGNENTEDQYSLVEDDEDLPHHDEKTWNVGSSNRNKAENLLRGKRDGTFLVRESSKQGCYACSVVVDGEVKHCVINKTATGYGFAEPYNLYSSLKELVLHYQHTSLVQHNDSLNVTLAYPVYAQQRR

Chain of PI3K α (P42336 whole entry, species assumed): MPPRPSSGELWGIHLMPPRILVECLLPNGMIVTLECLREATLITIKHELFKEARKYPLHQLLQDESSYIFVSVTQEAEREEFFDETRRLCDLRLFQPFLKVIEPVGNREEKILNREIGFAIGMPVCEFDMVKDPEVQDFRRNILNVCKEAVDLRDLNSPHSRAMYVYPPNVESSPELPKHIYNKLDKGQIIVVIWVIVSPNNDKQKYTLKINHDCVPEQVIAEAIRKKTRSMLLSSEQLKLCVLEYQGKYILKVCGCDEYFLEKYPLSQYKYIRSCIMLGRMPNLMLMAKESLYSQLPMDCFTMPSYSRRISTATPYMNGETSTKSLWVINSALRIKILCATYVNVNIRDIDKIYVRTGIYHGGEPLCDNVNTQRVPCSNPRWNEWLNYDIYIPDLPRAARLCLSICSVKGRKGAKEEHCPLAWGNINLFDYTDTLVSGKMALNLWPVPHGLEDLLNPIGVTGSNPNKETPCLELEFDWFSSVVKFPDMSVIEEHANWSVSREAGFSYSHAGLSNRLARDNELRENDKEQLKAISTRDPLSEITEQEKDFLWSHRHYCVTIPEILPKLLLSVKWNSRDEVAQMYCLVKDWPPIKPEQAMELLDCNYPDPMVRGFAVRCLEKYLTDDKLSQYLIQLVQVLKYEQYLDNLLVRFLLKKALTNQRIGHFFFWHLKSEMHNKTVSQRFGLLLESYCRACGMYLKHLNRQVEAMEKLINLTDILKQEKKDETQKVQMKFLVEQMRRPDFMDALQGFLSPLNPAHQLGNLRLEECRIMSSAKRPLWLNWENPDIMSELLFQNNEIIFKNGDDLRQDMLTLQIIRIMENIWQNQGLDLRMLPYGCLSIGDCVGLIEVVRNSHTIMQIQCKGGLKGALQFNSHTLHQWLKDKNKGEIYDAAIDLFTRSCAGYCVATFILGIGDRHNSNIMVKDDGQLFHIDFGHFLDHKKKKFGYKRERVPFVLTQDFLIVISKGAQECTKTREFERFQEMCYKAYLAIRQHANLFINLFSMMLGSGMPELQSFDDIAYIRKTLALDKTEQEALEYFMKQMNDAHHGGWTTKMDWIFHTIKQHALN
Chain of PI3K α (P27986 whole entry partner, species assumed): as the sequence (P27986 whole entry partner, species assumed) above
Chain of PI3K γ (P48736 whole entry, species assumed): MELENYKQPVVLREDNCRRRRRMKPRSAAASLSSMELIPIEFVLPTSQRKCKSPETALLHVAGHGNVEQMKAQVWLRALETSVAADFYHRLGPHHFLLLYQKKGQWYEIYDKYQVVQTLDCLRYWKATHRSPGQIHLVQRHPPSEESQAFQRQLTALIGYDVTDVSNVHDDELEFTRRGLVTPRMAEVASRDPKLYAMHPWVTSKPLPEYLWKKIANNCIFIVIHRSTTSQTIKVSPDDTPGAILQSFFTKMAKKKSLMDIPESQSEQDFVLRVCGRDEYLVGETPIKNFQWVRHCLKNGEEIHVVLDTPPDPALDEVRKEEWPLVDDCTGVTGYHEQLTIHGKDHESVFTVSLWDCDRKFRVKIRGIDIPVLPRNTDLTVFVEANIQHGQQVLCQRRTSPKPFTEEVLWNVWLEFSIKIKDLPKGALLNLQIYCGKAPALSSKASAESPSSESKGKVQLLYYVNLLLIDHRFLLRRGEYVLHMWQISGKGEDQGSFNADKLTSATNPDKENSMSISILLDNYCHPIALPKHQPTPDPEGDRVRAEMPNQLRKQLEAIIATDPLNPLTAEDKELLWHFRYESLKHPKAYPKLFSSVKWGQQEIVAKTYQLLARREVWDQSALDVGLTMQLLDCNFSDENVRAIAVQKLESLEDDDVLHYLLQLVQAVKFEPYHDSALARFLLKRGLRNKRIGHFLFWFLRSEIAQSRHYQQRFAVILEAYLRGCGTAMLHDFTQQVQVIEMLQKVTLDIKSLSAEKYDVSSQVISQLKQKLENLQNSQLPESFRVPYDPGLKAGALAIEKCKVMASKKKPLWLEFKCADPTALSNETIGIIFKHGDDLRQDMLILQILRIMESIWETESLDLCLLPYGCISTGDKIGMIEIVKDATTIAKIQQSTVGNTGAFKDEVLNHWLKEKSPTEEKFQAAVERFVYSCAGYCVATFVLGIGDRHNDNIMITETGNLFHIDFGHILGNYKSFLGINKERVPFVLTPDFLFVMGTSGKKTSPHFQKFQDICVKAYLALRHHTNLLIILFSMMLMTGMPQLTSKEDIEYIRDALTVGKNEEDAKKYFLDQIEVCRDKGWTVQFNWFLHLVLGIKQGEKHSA
Chain of PI3K δ (O00329 whole entry, species assumed): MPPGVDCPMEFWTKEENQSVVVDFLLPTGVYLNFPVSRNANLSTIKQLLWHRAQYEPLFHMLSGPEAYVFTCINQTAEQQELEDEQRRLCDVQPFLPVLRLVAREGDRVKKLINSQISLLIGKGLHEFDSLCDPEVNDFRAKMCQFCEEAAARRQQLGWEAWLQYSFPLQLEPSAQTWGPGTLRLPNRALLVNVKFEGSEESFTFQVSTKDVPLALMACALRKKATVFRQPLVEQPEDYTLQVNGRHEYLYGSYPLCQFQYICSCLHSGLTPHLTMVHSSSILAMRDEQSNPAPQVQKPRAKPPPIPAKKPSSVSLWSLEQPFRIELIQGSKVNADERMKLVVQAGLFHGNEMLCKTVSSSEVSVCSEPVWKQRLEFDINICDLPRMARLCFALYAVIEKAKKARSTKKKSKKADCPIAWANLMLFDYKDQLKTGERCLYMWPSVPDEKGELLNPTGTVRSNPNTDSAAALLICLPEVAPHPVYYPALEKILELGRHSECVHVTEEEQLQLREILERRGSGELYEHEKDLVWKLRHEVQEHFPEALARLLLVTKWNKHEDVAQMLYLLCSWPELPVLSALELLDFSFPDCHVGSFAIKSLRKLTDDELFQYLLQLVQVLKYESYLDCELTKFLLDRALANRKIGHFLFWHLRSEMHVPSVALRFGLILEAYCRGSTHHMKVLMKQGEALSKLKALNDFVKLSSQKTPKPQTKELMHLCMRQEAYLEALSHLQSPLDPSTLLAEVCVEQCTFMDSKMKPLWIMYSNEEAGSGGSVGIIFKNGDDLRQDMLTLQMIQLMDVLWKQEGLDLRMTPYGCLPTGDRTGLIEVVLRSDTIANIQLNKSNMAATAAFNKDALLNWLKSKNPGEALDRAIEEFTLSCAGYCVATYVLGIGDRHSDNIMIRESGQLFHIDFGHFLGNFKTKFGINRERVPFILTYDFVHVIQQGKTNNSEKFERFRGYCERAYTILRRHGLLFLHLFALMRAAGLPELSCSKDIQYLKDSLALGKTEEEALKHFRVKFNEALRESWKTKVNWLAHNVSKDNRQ
Chain of PI3K δ (P27986 whole entry partner, species assumed): as the sequence (P27986 whole entry partner, species assumed) above

Row | Compound | pIC50 (PI3K α; Table 2) | pIC50 (mTOR; Table 2, read-out: mTORC IC50) | pIC50 (PI3K γ; Table 2) | pIC50 (PI3K δ; Table 2) | pIC50 (PI3K β; Table 2) | pIC50 (PI3K α; Table 1) | pIC50 (mTOR; Table 1, read-out: mTOR IC50) | pIC50 (PI3K γ; Table 1) | pIC50 (PI3K δ; Table 1) | pIC50 (PI3K β; Table 1)
1 | CC(C)n1nc(-c2cc3ccc(O)cc3[nH]2)c2c(N)ncnc21 [Compound 21] | 6.30 to 7.00 | 7.30 to 7.60 | 6.30 to 7.00 | 6.30 to 7.00 | < 6.30 |  |  |  |  | 
2 | Cc1nc(N)c2c(-c3ccc4oc(N)nc4c3)nn(C(C)C)c2n1 [Compound 21] |  |  |  |  |  | < 5.00 | > 6.00 | < 5.00 | < 5.00 | < 5.00
3 | CC(CO)n1nc(-c2ccc3oc(N)nc3c2)c2c(N)ncnc21 (stereo not drawn) [Compound 23] |  |  |  |  |  | > 5.00 | > 7.00 | > 5.00 | > 5.00 | < 5.00
4 | Nc1nc2cc(-c3nn(C4CC(=O)C4)c4ncnc(N)c34)ccc2o1 [Compound 25] |  |  |  |  |  | > 6.00 |  | > 7.00 | > 6.00 | > 5.00
5 | CC(C)(CO)n1nc(-c2ccc3oc(N)nc3c2)c2c(N)ncnc21 [Compound 27] |  |  |  |  |  | > 5.00 |  | < 5.00 | > 6.00 | < 5.00
6 | Nc1ncnc2c1c(-c1cc3cccc(O)c3[nH]1)nn2C1CCN(C(=O)C2CC2)CC1 [Compound 41] | < 6.30 | 8.00 to 8.30 | 7.30 to 7.60 | < 6.30 | < 6.30 |  |  |  |  | 
7 | Nc1ncnc2c1c(-c1cc3c(Cl)cccc3[nH]1)nn2C1CCOCC1 [Compound 48] | < 6.30 | 7.30 to 7.60 | < 6.30 | < 6.30 | < 6.30 |  |  |  |  | 
8 | Nc1ncnc2c1c(-c1cc3cc(O)ccc3[nH]1)nn2C1CC(N2CCOCC2)C1 (stereo not drawn) [Compound 49] | < 6.30 | 8.00 to 8.30 | 6.30 to 7.00 | 6.30 to 7.00 | < 6.30 |  |  |  |  | 
9 | CC(C)n1nc(-c2cc3cccc(Cl)c3[nH]2)c2c(N)ncnc21 [Compound 50] | < 6.30 | 7.30 to 7.60 | 6.30 to 7.00 | 6.30 to 7.00 | < 6.30 |  |  |  |  | 
10 | Nc1ncnc2c1c(-c1cc3cccc(Cl)c3[nH]1)nn2C1CCOCC1 [Compound 51] | < 6.30 | 7.30 to 7.60 | 6.30 to 7.00 | 6.30 to 7.00 | < 6.30 |  |  |  |  | 
11 | CN1CCN(C2CC(n3nc(-c4cc5cc(O)ccc5[nH]4)c4c(N)ncnc43)C2)CC1 (stereo not drawn) [Compound 52] | < 6.30 | 6.30 to 7.00 | < 6.30 | 6.30 to 7.00 | < 6.30 |  |  |  |  | 
12 | CN1CCN(C2CCC(n3nc(-c4cc5cc(O)ccc5[nH]4)c4c(N)ncnc43)CC2)CC1 (stereo not drawn) [Compound 58] | < 6.30 | < 6.30 | < 6.30 |  | < 6.30 |  |  |  |  | 
13 | COc1ccc2cc(-c3nn(C4CCOCC4)c4ncnc(N)c34)[nH]c2c1 [Compound 59] | < 6.30 | < 6.30 | < 6.30 |  | < 6.30 |  |  |  |  | 
14 | Nc1ncnc2c1c(-c1cc3ccc(O)cc3[nH]1)nn2C1CCOCC1 [Compound 60] | < 6.30 | 7.00 to 7.30 | 7.00 to 7.30 |  | < 6.30 |  |  |  |  | 
15 | COc1ccc(Cl)c2cc(-c3nn(C4CCOCC4)c4ncnc(N)c34)[nH]c12 [Compound 61] | < 6.30 | 7.60 to 8.00 | < 6.30 | < 6.30 | < 6.30 |  |  |  |  | 
16 | Nc1ncnc2c1c(-c1cc3cccc(O)c3[nH]1)nn2C1CCOCC1 [Compound 62] | < 6.30 | > 8.30 | < 6.30 | 7.00 to 7.30 | < 6.30 |  |  |  |  | 
17 | COc1cccc2cc(-c3nn(C4CCOCC4)c4ncnc(N)c34)[nH]c12 [Compound 63] | 6.30 to 7.00 | > 8.30 | 7.60 to 8.00 | 7.60 to 8.00 | < 6.30 |  |  |  |  | 
18 | CC(C)N1CCC(n2nc(-c3cc4cccc(O)c4[nH]3)c3c(N)ncnc32)CC1 [Compound 64] | < 6.30 | 7.60 to 8.00 | 6.30 to 7.00 | 6.30 to 7.00 | < 6.30 |  |  |  |  | 
19 | CC(=O)N1CCC(n2nc(-c3cc4ccc(O)cc4[nH]3)c3c(N)ncnc32)CC1 [Compound 65] | 7.30 to 7.60 | 8.00 to 8.30 | 7.60 to 8.00 | 7.60 to 8.00 | < 6.30 |  |  |  |  | 
